# Values joined by “and” are separate entries in the source; they are usually repeats but may differ in a detail not shown here. Equal entries are not always repeated.
# Tested on: RPMI-8226 tumors
# Test: RPMI-8226 multiple myeloma xenograft in NSG mice
# Assay type: in vivo, mouse
# Source text: The purpose of this experiment was to evaluate the efficacy of anti-CD47 antibodies as a single agent and in combination with the proteasome inhibitor Bortezomib in the tumor growth inhibition in vivo in a xenograft mouse model of multiple myeloma. RPMI-8226 human multiple myeloma cells (ATCC #CCL-155, Manassas, Va.) were maintained in RPMI-1640 (Lonza; Walkersville, Md.) supplemented with 10% Fetal Bovine Serum (FBS; Omega Scientific; Tarzana, Calif.) and 1% Penicillin/Streptomycin (Corning, Manassas, Va.) within a 5% CO2 atmosphere. Cultures were expanded in tissue culture flasks.
# Female NSG (NOD-Cg-Prkdc^scidI12rg^tm1Wjl/SzJ) were obtained from Jackson Laboratory (Bar Harbor, Me.) at 5-6 weeks of age. Mice were acclimated prior to handling and housed in microisolator cages (Lab Products, Seaford, Del.) under specific pathogen-free conditions. Mice were fed Teklad Global Diet® 2920× irradiated laboratory animal diet (Envigo, Formerly Harlan; Indianapolis, Ind.) and provided autoclaved water ad libitum. All procedures were carried out under the institutional guidelines of Translational Drug Development Institutional Animal Care and Use Committee (Protocol #18105). Animals were identified using transponders.
# Female NSG mice were inoculated subcutaneously in the right flank with 0.1 mL of a 30% RPMI/70% Matrigel™ (BD Biosciences; Bedford, Mass.) mixture containing a suspension of 1×10^7 RPMI-8226 tumor cells. Fifteen days following inoculation, mice were randomized Test articles human IgG2 (hIgG2), an anti-CD47 antibody, and Bortezomib (LC Labs, Woburn, Mass.) were administered by intravenous (IV) injection. hIgG2 and anti-CD47 mAb were dosed on Days 0, 7, 14, 21, 28, and 35, while Bortezomib was dosed on Days 1, 4, and 12. as described below in Table 12.
# Mean tumor growth inhibition (TGI) was calculated for Day 48 (the final day all mice were on study) utilizing the following formula.
# The mean TS of each group was calculated and reported.
# All statistical analyses in the xenograft study were performed with Prism GraphPad® software. Differences in Day 48 tumor volumes were confirmed using a one-way ANOVA, unpaired, parametric with the Tukey's Multiple Comparison test with Welch's correction. A two-tailed Student's t-test with Welch's correction was also used to verify any differences between each group and the vehicle control.
# For statistical analysis purpose, any mouse sacrificed as an long term survivor (LTS) was assigned a death day of Day 99.
compound,measurement,setting,value
CC(C)C[C@H](NC(=O)[C@H](Cc1ccccc1)NC(=O)c1cnccn1)B(O)O [Bortezomib],Mean Day of Survival Days ± SEM,Bortezomib 1 mg/kg,76.8 ± 1.6 days
same,Median Day of Survival (Min-Max),Bortezomib 1 mg/kg,78 (70-84) Days
same,Day 48 Mean Tumor Volume (mm^3),Bortezomib 1 mg/kg IV,177 ± 20 mm^3
same,tumor shrinkage (in words),Bortezomib 1 mg/kg IV monotherapy,no tumor shrinkage was recorded
same,Day 48 % TGI,"Bortezomib 1 mg/kg IV, vs hIgG2 control",96.2% and 96.2 (10) %
same,"Day 48 Outcome (ANOVA), tumor volume vs hIgG2 (Group 1)","P value, Bortezomib 1 mg/kg",P < 0.05
same,"Day 48 Outcome (Student's t-test), tumor volume vs hIgG2 (Group 1)","P value, Bortezomib 1 mg/kg",P < 0.05
same,Survival Log-Rank Outcome vs hIgG2 (Group 1),"P value, Bortezomib 1 mg/kg",P < 0.05

# Source: patent publication US20190309066A1, “COMBINATION THERAPY FOR THE TREATMENT OF SOLID AND HEMATOLOGICAL CANCERS” (Arch Oncology, Inc., priority 2017, published 2019)
